Reference: patent US7595055B2, “Pharmaceutical composition comprising an extract or compounds isolated from Elfvingia applanata for the prevention and the treatment of diabetes and diabetic complications” (priority 2003, dated 2009)
Like-named read-outs stand apart in the source and are kept apart here.

Molecular target: T1, rat lenses aldose reductase (Rattus norvegicus, UniProt P07943)
T1 construct: The supernatant fraction of the rat lens homogenate was prepared in accordance with the procedure described in literature; from tissue; host or cells: lens of SD rats
Test: Inhibitory effect on rat lens aldose reductase activity in vitro
Type: biochemical
Details: for IC50: rat lens aldose reductase, DL-glyceraldehyde substrate, NADPH decrease at 340 nm
Experimental: Crude aldose reductase (AR) was prepared as follows: rat lense were removed from SD rats weighing 250-280 g and frozen until use. The supernatant fraction of the rat lens homogenate was prepared in accordance with the procedure described in literature (Hayman, S. & Kinoshita, J. H.; J. Biol. Chem., 240, pp 877-882, 1965). Partially purified enzyme with a specific activity of 6.5 U/mg was routinely used to rest enzyme inhibition.
(2) Measurement of Aldose Reductase Activity AR activity was assayed spectrophotometrically by measuring the decrease in absorption of NADPH at 340 nm over a 5 min with DL-glyceraldehyde as a substrate (Sato, S and Kador, P. F., Biochem. Pharmacol., 40, pp 1033-1042, 1990). Each 1.0 ml of cuvette containing equal units of enzyme, 0.10M sodium phospate buffer (pH 6.2), 0.3 mM NADPH with or without 10 mM substrate and the enzyme inhibitor. The concentration of inhibitors giving 50% inhibition of enzyme activity (IC50) was calculated from the lease-squares regression line of the logarithmic concentration plotted against the remaining activity.

IC50 (read-out: IC50 (converted)) [µM]	Structure (SMILES)	inhibition (%) (Concentration 0.1 (unit not given))	inhibition (%) (Concentration 1 (unit not given))	inhibition (%) (Concentration 10 (unit not given))	IC50 [µg/mL]
256	O=C(O)c1cc(O)ccc1O [2,5-dihydroxybenzoic acid, 2,5-dihydroxy benzoic acid]	–	–	–	–
52.3	CCCCCCCC[C@@H](O)C(=O)N[C@@H](CO[C@@H]1OC(CO)[C@@H](O)C(O)C1O)[C@H](O)/C=C/CC/C=C(\C)CCCC (stereo partly shown) [Cerebroside]	–	–	–	–
5.21	O=Cc1ccc(O)c(O)c1 [Protocatechualdehyde, protocatechualdehyde]	–	–	–	–
–	O=C(O)CC1(CC(=O)O)CCCC1 [TMG, tetramethylene glutaric acid]	29.8	53.7	82.1	0.63
